Measured values as given in ChEMBL document CHEMBL4431295 (Medchemcomm, 2016).

What was measured:
[1] = test system: SK-N-SH; assay: Antiproliferative activity against human SK-N-SH cells after 72 hrs by MTT assay; type: functional, cell-based
[2] = test system: MGC-803; assay: Antiproliferative activity against human MGC803 cells after 72 hrs by MTT assay; type: functional, cell-based; settings: MGC-803, 72 h
[3] = test system: HepG2; assay: Antiproliferative activity against human HepG2 cells after 72 hrs by MTT assay; type: functional, cell-based; settings: HepG2, 72 h
[4] = test system: GES1; assay: Cytotoxicity against human GES-1 cells assessed as cell growth inhibition after 72 hrs by MTT assay; type: cell-based; settings: GES1, 72 h

Structure (SMILES)	IC50 [1]	IC50 [2]	IC50 [3]	IC50 [4]
O=C(/C=C/c1ccc(Cl)cc1)c1ccc(OCc2cn(Cc3ccccc3)nn2)cc1	17.5 µM	43.2 µM	21 µM	
O=C(/C=C/c1ccco1)c1ccc(NCc2cn(Cc3ccccc3)nn2)cc1	39.2 µM	37.3 µM	42.5 µM	
CN1CCN(c2ccc(/C=C/C(=O)c3ccc(OCc4cn(Cc5ccccc5)nn4)cc3)cc2F)CC1	6.44 µM	11.6 µM	5.47 µM	
Nc1ccc(C(=O)/C=C/c2cccs2)cc1	> 64 µM	> 64 µM	> 64 µM	
Nc1ccc(C(=O)/C=C/c2ccco2)cc1	48.9 µM	> 64 µM	> 64 µM	
O=c1[nH]cc(F)c(=O)[nH]1 [FLUOROURACIL]	10.3 µM	7.22 µM	10.3 µM	7.22 µM
